Experimental data: PMC5007854, “β-Nitrostyrenes as Potential Anti-leishmanial Agents” (Frontiers in Microbiology, 2016)
In brackets after ≈: the same amount, converted by molar mass. Read-outs that look alike come from different tables or passages of the source.

What was measured:
[1] = test system: L. donovani intracellular amastigotes; assay: Anti-amastigote activity in ex vivo macrophage model; assay type: cell-based, Leishmania donovani; settings: 48 h; for Clearance of intracellular amastigotes in Giemsa-stained micrographs: 1.56 μM; for IC50: Leishmania donovani, Peritoneal macrophage, in Mus musculus, read-out: L. donovani amastigotes IC50 ± SEM
From the text: BALB/c mice was used for the isolation of peritoneal macrophages in the ex vivo anti-amastigote study after prior approval from the Jamia Hamdard Animal Ethics Committee (JHAEC). JHAEC is registered under the Committee for the purpose of supervision and control of experiments on animals (CPCSEA). Mice were individually housed in the Central Animal House of Jamia Hamdard as per internationally accepted norms. The mice were kept in standard size polycarbonate cages under controlled conditions of temperature (23 ± 1°C), humidity (55 ± 10%), 12:12 h of light and dark cycle and fed with standard pellet diet and filtered water (ad libitum).
Macrophages from the peritonial cavity of BALB/c mice (1 × 10^6 cellsml^−1) were allowed to adhere to round glass coverslips in a 24 well tissue culture plate and incubated for 12 h at 37°C in a CO2 incubator. After removal of the non-adherent macrophages, the cells were infected with stationary phase promastigotes using a cell to parasite ratio of 1:10 and incubated at 37°C for 24 h. The non-phagocytosed parasites were removed by washing, and the infected macrophages incubated with the test compounds 9, 12, 14, and 18 (0–25 μM) for an additional 48 h. The coverslips were fixed in methanol and giemsa-stained for microscopic evaluation (100X) of amastigote infectivity. Number of amastigotes per 100 macrophages were enumerated and the concentration that decreased amastigotes by 50% (IC50) was determined (Wong et al., [2012]; Islamuddin et al., [2014a]).
In vitro antileishmanial activity was expressed as IC50 by linear regression analysis. Values are mean ± SE of samples in triplicate from at least three independent experiments. Statistical analysis was performed using ANOVA followed by Dunnett's test. ^*P < 0.05, ^**P < 0.01 and ^***P < 0.001 compared with the untreated control group were considered significant.

[2] = test system: L. donovani promastigotes; assay: Anti-leishmanial screening at 100 μM, parasite viability by microscopy; assay type: cell-based, Leishmania donovani; settings: 100 μM, 72 h, phase contrast microscope
In short: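 Promastigotes (MHOM/IN/83/AG83) at 2 × 10^6 cells/mL in M199 with 10% FBS exposed to compound at 100 μM for 72 h at 22°C. Viability assessed microscopically; 0.2% DMSO solvent control, amphotericin B reference.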

[3] = test system: Escherichia coli ATCC 25922; assay: Broth microdilution antibacterial susceptibility (MIC/MBC); assay type: cell-based; settings: for MIC / MBC: Escherichia coli; for MIC: ATCC25922, 24 h
In short: (§1)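 CLSI broth microdilution: Ca/Mg-supplemented Mueller-Hinton for bacteria (~5 × 10^5 CFU/mL, 24 h), MOPS-buffered RPMI 1640 pH 7.0 for fungi (Candida ~2.5 × 10^4, Aspergillus 0.4-5 × 10^4 CFU/mL, 48 h), 35°C, 1% DMSO, 64 to 0.12 μg/mL. MIC read visually; MBC/MFC by plating clear wells.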

[4] = test system: Staphylococcus aureus ATCC 29213; assay: as above; assay type: cell-based; settings: Staphylococcus aureus; for MIC: ATCC29213, 24 h
In short: as §1

[5] = test system: Staphylococcus epidermidis ATCC 14990; assay: as above; assay type: cell-based; settings: for MIC / MBC: Staphylococcus epidermidis; for MIC: ATCC14990, 24 h
In short: as §1

[6] = test system: Pseudomonas aeruginosa ATCC 27853; assay: as above; assay type: cell-based; settings: for MIC / MBC: Pseudomonas aeruginosa; for MIC: ATCC27853, 24 h
In short: as §1

[7] = read-out: MIC, Ec ATCC 25922, broth microdilution, 35°C, 24 h
[8] = ATCC25922, read-out: MBC, Ec ATCC 25922
[9] = broth microdilution, 35°C, 24 h
[10] = ATCC29213, read-out: MBC, Sa ATCC 29213
[11] = read-out: MIC, Se ATCC 14990, broth microdilution, 35°C, 24 h
[12] = ATCC14990, read-out: MBC, Se ATCC 14990
[13] = read-out: MIC, Pa ATCC 27853, broth microdilution, 35°C, 24 h
[14] = ATCC27853, read-out: MBC, Pa ATCC 27853
[15] = intracellular amastigotes in BALB/c peritoneal macrophages
[16] = ATCC25922, ≥99.9% reduction of original inoculum, read-out: MBC, Ec ATCC 25922
[17] = ATCC29213, ≥99.9% reduction of original inoculum, read-out: MBC, Sa ATCC 29213
[18] = ATCC14990, ≥99.9% reduction of original inoculum, read-out: MBC, Se ATCC 14990
[19] = ATCC27853, ≥99.9% reduction of original inoculum, read-out: MBC, Pa ATCC 27853

## CC/C(=C\c1ccc([N+](=O)[O-])cc1)[N+](=O)[O-] [Compound 9, 1-nitro-4-((E)-2-nitrobut-1-enyl) benzene]
[1]
  Clearance of intracellular amastigotes in Giemsa-stained micrographs: almost total clearance
  IC50: 0.0305 ± 0.00342 µM
[2]
  Parasite viability after treatment: All the parasites were found to be dead
[3]; [7]
  MIC: 16 to 32 µg/mL (≈ 72 to 144 µM)
[3]; [8]
  MBC: 32 µg/mL (≈ 144 µM)
[3]; [9]
  MIC, Ec ATCC 25922: 16 µg/mL (≈ 72 µM)
[4]; [10]
  MBC: 8 µg/mL (≈ 36 µM)
[5]; [11]
  MIC: 2 to 16 µg/mL (≈ 9 to 72 µM)
[5]; [12]
  MBC: 4 µg/mL (≈ 18 µM)
[5]; [9]
  MIC, Se ATCC 14990: 4 µg/mL (≈ 18 µM)
[6]; [13]
  MIC: 16 to 32 µg/mL (≈ 72 to 144 µM)
[6]; [14]
  MBC: 32 µg/mL (≈ 144 µM)
[6]; [9]
  MIC, Pa ATCC 27853: 16 µg/mL (≈ 72 µM)

## CC/C(=C\c1ccc(O)cc1)[N+](=O)[O-] [Compound 18, 4-((E)-2-nitrobut-1-enyl) phenol]
[1]
  Clearance of intracellular amastigotes in Giemsa-stained micrographs: almost total clearance
[1]; [15]
  IC50: 0.0616 ± 0.00802 µM
[2]
  Parasite viability after treatment: All the parasites were found to be dead
[3]; [16]
  MBC: > 64 µg/mL
[4]; [17]
  MBC: 16 µg/mL (≈ 82.8 µM)
[5]; [18]
  MBC: 8 µg/mL (≈ 41.4 µM)
[6]; [19]
  MBC: > 64 µg/mL

## CC/C(=C\c1cccc([N+](=O)[O-])c1)[N+](=O)[O-] [Compound 12, 1-nitro-3-((E)-2-nitrobut-1-enyl) benzene]
[1]
  Clearance of intracellular amastigotes in Giemsa-stained micrographs: almost total clearance
  IC50: 0.0215 ± 0.00096 µM
[2]
  Parasite viability after treatment: All the parasites were found to be dead
[3]; [7]
  MIC: 16 µg/mL (≈ 72 µM)
[3]; [8]
  MBC: 16 µg/mL (≈ 72 µM)
[4]; read-out: MIC, Sa ATCC 29213, broth microdilution, 35°C, 24 h
  MIC: 0.5 µg/mL (≈ 2.25 µM)
[4]; [10]
  MBC: 0.5 µg/mL (≈ 2.25 µM)
[5]; [11]
  MIC: 0.25 µg/mL (≈ 1.13 µM)
[5]; [12]
  MBC: 0.25 µg/mL (≈ 1.13 µM)
[6]; [13]
  MIC: 16 µg/mL (≈ 72 µM)
[6]; [14]
  MBC: 16 µg/mL (≈ 72 µM)

## COc1ccc(/C=C(\C)[N+](=O)[O-])cc1 [Compound 14, 1-methoxy-4-((E)-2-nitroprop-1-enyl) benzene]
[1]
  Clearance of intracellular amastigotes in Giemsa-stained micrographs: almost total clearance
[1]; [15]
  IC50: 0.0264 ± 0.00271 µM
[2]
  Parasite viability after treatment: All the parasites were found to be dead
[3]; broth microdilution, 35°C, 24 h, read-out: MIC, Ec ATCC 25922
  MIC: 64 µg/mL (≈ 331 µM)
[3]; [16]
  MBC: > 64 µg/mL
[4]; broth microdilution, 35°C, 24 h, read-out: MIC, Sa ATCC 29213
  MIC: 8 µg/mL (≈ 41.4 µM)
[4]; [17]
  MBC: 8 µg/mL (≈ 41.4 µM)
[5]; broth microdilution, 35°C, 24 h, read-out: MIC, Se ATCC 14990
  MIC: 4 µg/mL (≈ 20.7 µM)
[5]; [18]
  MBC: 4 µg/mL (≈ 20.7 µM)
[6]; broth microdilution, 35°C, 24 h, read-out: MIC, Pa ATCC 27853
  MIC: > 64 µg/mL
[6]; [19]
  MBC: > 64 µg/mL
